Key:
hERG = biological target: T1, hERG (Homo sapiens, UniProt Q12809); assay: hERG inhibition test (Predictor hERG Fluorescence Polarization assay kit); format: binding; details: probe kit Tracer (fluorescent hERG ligand), hERG % inhibition at 10 uM, relative to E-4031 and solvent control
T1 construct: purchased Invitrogen PV5365
Experimental: To measure the hERG (Human ether-a-go-go-related gene) channel inhibition rate of the compound according to the present invention, the following test was performed using a Predictor hERG Fluorescence Polarization assay kit (Invitrogen, PV5365).
Specifically, a test substance was dissolved in DMSO to prepare a 50 mM solution. A 4 mM solution was prepared by diluting the 50 mM solution with DMSO in a U bottom 96-well plate (SPL, 34096), and was then diluted 100-fold with a test buffer to prepare a 40 uM (4×) solution. The positive control E-4031 (3 mM) provided in the kit was diluted 25-fold with a test buffer to prepare a 120 uM solution) 5 uL of the diluted test substance solution was dispensed into a 384-well assay plate (corning, 3677). hERG Membrane (2×) and Tracer (4×) provided in the kit were respectively added at 10 uL and 5 uL, and then subjected to the reaction at room temperature for 2.5 hours. After completion of the reaction, fluorescence polarization (mP) was measured with a Multimode Plate Reader (Perkin-Elmer, Envision) (excitation wavelength of 531 nm, and emission wavelength 579 nm). The value of the percent inhibitory activity (% inhibition) at 10 uM of each test substance was calculated by the following equation, and the results are shown in Table 2: (% inhibition)=100−{(mP of the compound according to the present invention−E-4031 mP)/(mP of the solvent control−E-4031 mP)}×100

human GLP-1 receptor = biological target: T2, human GLP-1 receptor (Homo sapiens, UniProt P43220); assay: cAMP activity test (cAMP dynamic HTRF kit) in CHO-K1/GLP-1 receptor-expressing cells; format: cell-based; details: cAMP activity, CHO-K1/GLP-1 receptor-expressing cells; read-out: EC50
T2 construct: host or cells: CHO-K1
T2 sequence (P43220 24-463): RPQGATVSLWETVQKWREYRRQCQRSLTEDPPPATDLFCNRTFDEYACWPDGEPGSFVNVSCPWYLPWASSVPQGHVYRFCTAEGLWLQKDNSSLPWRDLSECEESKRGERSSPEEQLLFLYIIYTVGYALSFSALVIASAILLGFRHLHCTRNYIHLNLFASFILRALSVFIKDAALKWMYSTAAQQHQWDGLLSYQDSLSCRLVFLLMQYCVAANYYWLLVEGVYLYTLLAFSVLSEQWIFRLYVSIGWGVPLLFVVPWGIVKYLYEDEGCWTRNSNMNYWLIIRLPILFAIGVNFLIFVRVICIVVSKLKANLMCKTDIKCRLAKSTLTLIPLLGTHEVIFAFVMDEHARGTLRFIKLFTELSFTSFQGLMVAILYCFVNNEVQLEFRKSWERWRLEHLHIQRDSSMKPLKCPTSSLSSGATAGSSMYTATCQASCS
Experimental: The next day, the medium was removed, and a 50 uL of HBSS medium containing 0.1% BSA, 0.5 mM IBMX, and 5 mM HEPES was added to each well. […] The cAMP activity was measured according to the manufacturer's instructions using the cAMP dynamic HTRF kit (Cisbio, 62AM4PEC). After incubation, the medium was discarded, and the cells were lysed. cAMP-d2 and anti-cAMP cryptate conjugate were added thereto and reacted for 3 hours. […] Intracellular cAMP competes with cAMP-d2 for anti-cAMP cryptate, and the measured signal of fluorescence resonance energy transfer (FRET) is inversely proportional to intracellular cAMP.

T1 sequence (Q12809 whole entry): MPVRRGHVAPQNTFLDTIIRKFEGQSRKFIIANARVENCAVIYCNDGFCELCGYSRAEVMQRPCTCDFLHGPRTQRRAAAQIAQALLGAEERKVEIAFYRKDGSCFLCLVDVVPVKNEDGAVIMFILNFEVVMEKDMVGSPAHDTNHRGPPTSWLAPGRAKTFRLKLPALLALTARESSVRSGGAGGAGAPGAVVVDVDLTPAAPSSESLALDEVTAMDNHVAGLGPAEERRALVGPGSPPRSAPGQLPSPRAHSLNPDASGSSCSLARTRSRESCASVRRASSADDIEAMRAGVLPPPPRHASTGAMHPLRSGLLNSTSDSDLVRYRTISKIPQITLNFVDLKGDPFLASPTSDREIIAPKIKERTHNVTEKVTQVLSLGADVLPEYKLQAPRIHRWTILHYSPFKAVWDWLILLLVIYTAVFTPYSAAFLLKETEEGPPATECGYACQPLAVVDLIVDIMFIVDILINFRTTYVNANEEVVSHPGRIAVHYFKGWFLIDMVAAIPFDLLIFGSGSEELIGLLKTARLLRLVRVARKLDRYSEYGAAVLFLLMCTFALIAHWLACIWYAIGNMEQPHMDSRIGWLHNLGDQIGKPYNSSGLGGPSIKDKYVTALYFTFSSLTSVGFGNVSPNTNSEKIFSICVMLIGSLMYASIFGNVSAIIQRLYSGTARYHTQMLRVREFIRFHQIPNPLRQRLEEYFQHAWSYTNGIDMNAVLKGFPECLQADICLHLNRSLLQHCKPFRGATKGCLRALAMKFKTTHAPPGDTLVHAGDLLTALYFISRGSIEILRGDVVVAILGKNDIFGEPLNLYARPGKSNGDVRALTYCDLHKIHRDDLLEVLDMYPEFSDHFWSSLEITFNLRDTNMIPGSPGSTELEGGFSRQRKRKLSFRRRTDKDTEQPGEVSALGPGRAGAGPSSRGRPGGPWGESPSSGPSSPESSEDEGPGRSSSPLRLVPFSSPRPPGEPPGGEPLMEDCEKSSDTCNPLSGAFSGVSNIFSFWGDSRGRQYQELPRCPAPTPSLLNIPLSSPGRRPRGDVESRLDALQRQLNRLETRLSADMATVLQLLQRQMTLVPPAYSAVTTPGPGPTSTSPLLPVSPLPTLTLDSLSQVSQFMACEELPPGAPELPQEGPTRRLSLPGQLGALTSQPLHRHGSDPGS

EC50 (human GLP-1 receptor)	Compound	inhibition at 2.5 h, 10 µM (hERG)
10 nM	O=C(O)c1ccc2nc(Cc3ccc(-c4cccc(OCc5ccc(Cl)cc5F)n4)cc3)n(Cc3cccnc3)c2c1 [Example 1, 2-(4-(6-(4-chloro-2-fluorobenzyloxy)pyridin-2-yl)benzyl)-1-(pyridin-3-ylmethyl)-1H-benzo[d]imidazole-6-carboxylic acid]	1.26%
63 nM	COCCn1c(Cc2ccc(-c3cccc(OCc4ccc(Cl)cc4F)n3)cc2)nc2ccc(C(=O)O)cc21 [Example 2, 2-(4-(6-(4-chloro-2-fluorobenzyloxy)pyridin-2-yl)benzyl)-1-(2-methoxyethyl)-1H-benzo[d]imidazole-6-carboxylic acid]	-11.9%
32 nM	COCCn1c(Cc2ccc(-c3cccc(OCc4ccc(Cl)cc4F)n3)cc2F)nc2ccc(C(=O)O)cc21 [Example 3, 2-(4-(6-(4-chloro-2-fluorobenzyloxy)pyridin-2-yl)-2-fluorobenzyl)-1-(2-methoxyethyl)-1H-benzo[d]imidazole-6-carboxylic acid]	8.39%
200 nM	COCCn1c(Cc2ccc(-c3cccc(OCc4ccc(Cl)cc4F)n3)c(C)c2)nc2ccc(C(=O)O)cc21 [Example 4, 2-(4-(6-(4-chloro-2-fluorobenzyloxy)pyridin-2-yl)-3-methylbenzyl)-1-(2-methoxyethyl)-1H-benzo[d]imidazole-6-carboxylic acid]	-2.87%
620 nM	COCCn1c(Cc2ccc(-c3cccc(OCc4ccc(Cl)cc4F)n3)cc2[N+](=O)[O-])nc2ccc(C(=O)O)cc21 [Example 5, 2-(4-(6-(4-chloro-2-fluorobenzyloxy)pyridin-2-yl)-2-nitrobenzyl)-1-(2-methoxyethyl)-1H-benzo[d]imidazole-6-carboxylic acid]	2.74%
25 nM	COCCn1c(Cc2ccc(-c3cccc(OCc4ccc(Cl)cc4F)n3)c(F)c2)nc2ccc(C(=O)O)cc21 [Example 6, 2-(4-(6-(4-chloro-2-fluorobenzyloxy)pyridin-2-yl)-3-fluorobenzyl)-1-(2-methoxyethyl)-1H-benzo[d]imidazole-6-carboxylic acid]	22.8%
2000 nM	COCCn1c(Cc2ccc(-c3cccc(COc4ccc(Cl)cc4F)n3)cc2[N+](=O)[O-])nc2ccc(C(=O)O)cc21 [Example 7, 2-(4-(6-((4-chloro-2-fluorophenoxy)methyl)pyridin-2-yl)-2-nitrobenzyl)-1-(2-methoxyethyl)-1H-benzo[d]imidazole-6-carboxylic acid]	1.63%
120 nM	N#Cc1ccc(COc2cccc(-c3ccc(Cc4nc5ccc(C(=O)O)cc5n4CC4CCCO4)cc3)c2)c(F)c1 (stereo not drawn) [Example 8, 2-((3′-(4-cyano-2-fluorobenzyloxy)biphenyl-4-yl)methyl)-1-((tetrahydrofuran-2-yl)methyl)-1H-benzo[d]imidazole-6-carboxylic acid]	4.01%
75 nM	N#Cc1ccc(COc2cccc(-c3ccc(Cc4nc5ccc(C(=O)O)cc5n4CC4CCCO4)cc3F)c2)c(F)c1 (stereo not drawn) [Example 9, 2-((3′-(4-cyano-2-fluorobenzyloxy)-2-fluorobiphenyl-4-yl)methyl)-1-((tetrahydrofuran-2-yl)methyl)-1H-benzo[d]imidazole-6-carboxylic acid]	0.48%
24 nM	O=C(O)c1ccc2nc(Cc3ccc(-c4cccc(OCc5ccc(Cl)cc5F)n4)cc3)n(CC3CCCO3)c2c1 (stereo not drawn) [Example 10, 2-(4-(6-(4-chloro-2-fluorobenzyloxy)pyridin-2-yl)benzyl)-1-((tetrahydrofuran-2-yl)methyl)-1H-benzo[d]imidazole-6-carboxylic acid]	-7.54%
6.5 nM	O=C(O)c1ccc2nc(Cc3ccc(-c4cccc(OCc5ccc(Cl)cc5F)n4)c(F)c3)n(CC3CCCO3)c2c1 (stereo not drawn) [Example 11, 2-(4-(6-(4-chloro-2-fluorobenzyloxy)pyridin-2-yl)-3-fluorobenzyl)-1-((tetrahydrofuran-2-yl)methyl)-1H-benzo[d]imidazole-6-carboxylic acid]	-1.31%
85 nM	O=C(O)c1ccc2nc(Cc3ccc(-c4cccc(OCc5ccc(Cl)cc5F)n4)cc3)n(Cc3ccco3)c2c1 [Example 12, 2-(4-(6-(4-chloro-2-fluorobenzyloxy)pyridin-2-yl)benzyl)-1-(furan-2-ylmethyl)-1H-benzo[d]imidazole-6-carboxylic acid]	-2.74%
35 nM	O=C(O)c1ccc2nc(Cc3ccc(-c4cccc(OCc5ccc(Cl)cc5F)n4)cc3F)n(Cc3ccco3)c2c1 [Example 13, 2-(4-(6-(4-chloro-2-fluorobenzyloxy)pyridin-2-yl)-2-fluorobenzyl)-1-(furan-2-ylmethyl)-1H-benzo[d]imidazole-6-carboxylic acid]	-7.76%
93 nM	N#Cc1ccc(COc2cccc(-c3ccc(Cc4nc5ccc(C(=O)O)cc5n4CC4CCCO4)c(F)c3)c2)c(F)c1 (stereo not drawn) [Example 14, 2-((3′-(4-cyano-2-fluorobenzyloxy)-3-fluorobiphenyl-4-yl)methyl)-1-((tetrahydrofuran-2-yl)methyl)-1H-benzo[d]imidazole-6-carboxylic acid]	-6.08%
16 nM	N#Cc1ccc(COc2cccc(-c3ccc(Cc4nc5ccc(C(=O)O)cc5n4CC4CCCO4)c(F)c3)n2)c(F)c1 (stereo not drawn) [Example 15, 2-(4-(6-(4-cyano-2-fluorobenzyloxy)pyridin-2-yl)-2-fluorobenzyl)-1-((tetrahydrofuran-2-yl)methyl)-1H-benzo[d]imidazole-6-carboxylic acid]	1.67%
82 nM	O=C(O)c1ccc2nc(Cc3ccc(-c4cccc(OCc5ccc(Cl)cc5F)c4)cc3F)n(CC3CCCO3)c2c1 (stereo not drawn) [Example 16, 2-((3′-(4-chloro-2-fluorobenzyloxy)-3-fluorobiphenyl-4-yl)methyl)-1-((tetrahydrofuran-2-yl)methyl)-1H-benzo[d]imidazole-6-carboxylic acid]	-0.94%
8.2 nM	O=C(O)c1ccc2nc(Cc3ccc(-c4cccc(OCc5ccc(Cl)cc5F)n4)cc3F)n(CC3CCCO3)c2c1 (stereo not drawn) [Example 17, 2-(4-(6-(4-chloro-2-fluorobenzyloxy)pyridin-2-yl)-2-fluorobenzyl)-1-((tetrahydrofuran-2-yl)methyl)-1H-benzo[d]imidazole-6-carboxylic acid]	-9.12%
110 nM	N#Cc1ccc(COc2cccc(-c3ccc(Cc4nc5ccc(C(=O)O)cc5n4Cc4ccco4)cc3)n2)c(F)c1 [Example 18, 2-(4-(6-(4-cyano-2-fluorobenzyloxy)pyridin-2-yl)benzyl)-1-(furan-2-ylmethyl)-1H-benzo[d]imidazole-6-carboxylic acid]	7.37%
40 nM	N#Cc1ccc(COc2cccc(-c3ccc(Cc4nc5ccc(C(=O)O)cc5n4Cc4ccco4)c(F)c3)n2)c(F)c1 [Example 19, 2-(4-(6-(4-cyano-2-fluorobenzyloxy)pyridin-2-yl)-2-fluorobenzyl)-1-(furan-2-ylmethyl)-1H-benzo[d]imidazole-6-carboxylic acid]	1.8%
–	N#Cc1ccc(COc2cccc(-c3ccc(Cc4nc5ccc(C(=O)O)cc5n4C[C@@H]4CCO4)c(F)c3)n2)c(F)c1 [Example 73, (S)-2-(4-(6-(4-cyano-2-fluorobenzyloxy)pyridin-2-yl)-2-fluorobenzyl)-1-(oxetan-2-ylmethyl)-1H-benzo[d]imidazole-6-carboxylic acid]	-14.6%
–	O=C(O)c1ccc2nc(Cc3ccc(-c4cccc(OCc5ccc(Cl)cc5F)n4)cc3F)n(C[C@@H]3CCO3)c2c1 [Example 78, (S)-2-(4-(6-(4-chloro-2-fluorobenzyloxy)pyridin-2-yl)-2-fluorobenzyl)-1-(oxetan-2-ylmethyl)-1H-benzo[d]imidazole-6-carboxylic acid]	-17.9%
–	O=C(O)c1ccc2nc(Cc3ccc(-c4cccc(OCc5ccc(Cl)cc5)n4)c(F)c3)n(CC3CCCO3)c2c1 (stereo not drawn) [Example 94, 2-(4-(6-(4-chlorobenzyloxy)pyridin-2-yl)-3-fluorobenzyl)-1-((tetrahydrofuran-2-yl)methyl)-1H-benzo[d]imidazole-6-carboxylic acid]	18.9%
–	O=C(O)c1ccc2nc(Cc3ccc(-c4cccc(OCC5CC5)n4)c(F)c3)n(C[C@@H]3CCO3)c2c1 [Example 135, (S)-2-(4-(6-(cyclopropylmethoxy)pyridin-2-yl)-3-fluorobenzyl)-1-(oxetan-2-ylmethyl)-1H-benzo[d]imidazole-6-carboxylic acid]	-14%
